Results reported in patent US6576266B1, “Plant extract based on glycerides, a method for the preparation of this extract and a cosmetic composition containing the same” (Sodic SA, priority 1999, dated 2003).

Legend:
[1] = target: T1, elastase of human leukocytes (EHL) (Homo sapiens, UniProt P08246); assay: Inhibitory action against elastase (synthetic substrate, spectrophotometry at 405 nm); format: biochemical
T1 sequence (P08246 30-267): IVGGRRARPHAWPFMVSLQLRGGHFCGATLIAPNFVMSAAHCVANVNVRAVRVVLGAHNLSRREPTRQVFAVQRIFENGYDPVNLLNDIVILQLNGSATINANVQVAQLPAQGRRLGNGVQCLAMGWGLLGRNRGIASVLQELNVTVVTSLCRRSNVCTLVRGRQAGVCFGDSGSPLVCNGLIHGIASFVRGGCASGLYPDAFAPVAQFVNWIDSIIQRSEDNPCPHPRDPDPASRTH
Description: It was of interest to investigate the inhibitory action against elastase by the powder extract of the invention and to compare it with that of ceramide 3 alone.
The inhibitory action of the powder extract of the invention against EHL was examined in an aqueous solution of a Tris-HCl buffer, using N-methoxysuccinyl-alanyl-alanyl-prolyl-valyl-para-nitroanilide as a synthetic substrate.
The kinetics of the reaction were determined by spectrophotometry at 405 nm, enabling the measurement of the release of para-nitroanilide, which is a coloured product. The percent inhibitory action of the preparation against the elastase was determined by comparison with a reference curve (hydrolysis of the substrate in the absence of an inhibitor).

[2] = test system: reduction of cytochrome c (xanthin oxidase); assay: Radical scavenging: slowing-down of the reduction of cytochrome c (Fridovitch and McCord); format: biochemical; settings: 0.6315 mg/ml, phosphate buffer pH 7.8, 25° C.
Text: The experimental method is based on the procedure developed in 1973 by Fridovitch and McCord for SOD (J. Biol. Chem. 248, 2648).
The determination of the radical scavenging properties is based on the measurement of the inhibition or of the slowing-down of the reduction of cyto-chrome c by the product investigated, by comparison with the effect exerted by xanthin oxidase. The formation of reduced cytochrome c is monitored by spectrophotometry at 550 nm.
In these tests, a plant extract powder of the invention is used at a concentration of 1.5 mg/ml in a phosphate buffer pH 7.8 at 25° C.
Furthermore, an additional test was carried out with Dgdg alone, in the same conditions as above, but using the Fluka 36975 product having a purity of 95%.

- Inhibitory activity against elastase (in words) [1]: practically no inhibitory activity
Substance: 2,3-di-O-(fatty acid acyl)-1-O-[6′-O-α-D-galactopyranosyl-β-galactopyranosyl]-D-glycerine [Dgdg]
- Slowing-down of the reduction of cytochrome c [2]: 36.1%
